Experiment [1] is filed under the species Rattus norvegicus. The experiment is described as follows: Percent inhibition was evaluated by measuring the inhibition of microsomal lipid peroxidation induced by CCl4/NADPH.p < 0.01. The format is functional. The note with it: dose or concentration not given here.
Experiment [2] addresses T1, Phospholipase A2, membrane associated (Homo sapiens) (UniProt P14555).
T1 sequence (whole entry): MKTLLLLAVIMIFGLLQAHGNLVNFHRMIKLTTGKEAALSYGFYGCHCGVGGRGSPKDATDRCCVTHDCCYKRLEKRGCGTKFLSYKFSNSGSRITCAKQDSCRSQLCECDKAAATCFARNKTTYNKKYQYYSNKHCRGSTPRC
In words: Inhibitory activity against synovial human recombinant phospholipase (hr-PLA2) at 100 uM concentration.

The species named for experiment [3] is Rattus norvegicus. The experiment is described as follows: Percent inhibition was evaluated by measuring the inhibition of microsomal lipid peroxidation induced by [Fe(3+)]-ADP/NADPH at 100 uM concentration. The format is functional.
The species entered for experiment [4] is Rattus norvegicus. The experiment is described as follows: IC50 value was evaluated by measuring the 50% inhibition of microsomal lipid peroxidation induced by CCl4/NADPH. The format is functional.
For experiment [5], the species on record is Rattus norvegicus. The experiment is described as follows: Inhibition of microsomal lipid peroxidation induced by [Fe(2+)]/ascorbate at 100 uM concentration. The format is functional.
Experiment [6] is filed under the species Homo sapiens. The experiment is described as follows: Inhibitory activity against elastase release by human neutrophils. The format is functional. More on the design: concentration or dose not given beside the values.
The species named for experiment [7] is Rattus norvegicus. The experiment is described as follows: Percent inhibition was evaluated by measuring the inhibition of peroxyl scavenging activity at 100 uM concentration. The format is functional.
The species named for experiment [8] is Homo sapiens. The experiment is described as follows: Inhibitory activity against TXB2 generation at 100 uM concentration. The format is functional.
For experiment [9], the species on record is Rattus norvegicus. In words: Inhibition of microsomal lipid peroxidation induced by [Fe(3+)]-ADP/NADPH at 100 uM concentration. The format is functional.
The species entered for experiment [10] is Rattus norvegicus. In words: IC50 value was evaluated by measuring the 50% inhibition of microsomal lipid peroxidation induced by [Fe(3+)]-ADP/NADPH. The format is functional.
Experiment [11] is filed under the species Rattus norvegicus. The experiment is described as follows: Percent inhibition was evaluated by measuring the inhibition of microsomal lipid peroxidation induced by CCl4/NADPH. The format is functional. As to conditions: dose or concentration not given here.
Experiment [12] concerns the target T1, Phospholipase A2, membrane associated (Homo sapiens). The experiment is described as follows: Inhibitory activity against synovial human recombinant phospholipase (hr-PLA2) at 1 mM concentration.
The species named for experiment [13] is Rattus norvegicus. The experiment is described as follows: Inhibition of microsomal lipid peroxidation induced by CCl4/NADPH. The format is functional.
Experiment [14] is filed under the species Rattus norvegicus. In words: Percent inhibition was evaluated by measuring the inhibition of microsomal lipid peroxidation induced by CCl4/NADPH. The format is functional. The note with it: dose or concentration not given here.
Experiment [15] is filed under the species Rattus norvegicus. The experiment is described as follows: Inhibition of microsomal lipid peroxidation induced by [Fe(3+)]-ADP/NADPH. The format is functional.
The species named for experiment [16] is Rattus norvegicus. In words: Inhibition of peroxyl scavenging activity at 100 uM concentration. The format is functional.
The species named for experiment [17] is Rattus norvegicus. The experiment is described as follows: (§1) Inhibition of microsomal lipid peroxidation induced by CCl4/NADPH in rat liver. The format is functional. The note with it: dose or concentration not given here.
Experiment [18] is filed under the species Rattus norvegicus. In words: Inhibition of microsomal lipid peroxidation induced by [Fe(2+)]/ascorbate in rat liver. The format is functional.
For experiment [19], the species on record is Rattus norvegicus. In words: Inhibition of microsomal lipid peroxidation induced by [Fe(3+)]-ADP/NADPH at 100 uM concentration in rat liver. The format is functional.
The species entered for experiment [20] is Rattus norvegicus. The experiment is described as follows: Inhibition of microsomal lipid peroxidation induced by [Fe(2+)]/ascorbate at given 100 uM concentration in rat liver. The format is functional.
The species named for experiment [21] is Rattus norvegicus. In words: IC50 value was evaluated by measuring the 50% inhibition of peroxyl scavenging activity. The format is functional.
For experiment [22], the species on record is Rattus norvegicus. Described as §1. The format is functional.
The species named for experiment [23] is Rattus norvegicus. In words: Inhibition of microsomal lipid peroxidation induced by [Fe(3+)]-ADP/NADPH in rat liver. The format is functional.
The species named for experiment [24] is Rattus norvegicus. In words: Inhibition of microsomal lipid peroxidation induced by CCl4/NADPH. The format is functional. As to conditions: dose or concentration not given here.
Experiment [25] is filed under the species Rattus norvegicus. The experiment is described as follows: Percent inhibition was evaluated by measuring the inhibition of peroxyl scavenging activity. The format is functional. As to conditions: dose or concentration not given here.
Experiment [26] is filed under the species Rattus norvegicus. The experiment is described as follows: Inhibition of microsomal lipid peroxidation induced by CCl4/NADPH at 100 uM concentration. The format is functional.

As a reminder, the inhibition is the drop in the measured response relative to a control, in per cent. The term IC50 denotes the concentration that inhibits the measured activity by half. Broadly, the Inhibition is the relative decrease from the control value, in per cent. On to `COc1ccc(/C=C/C(=O)c2ccc(OC)c(OC)c2O)cc1OC`, for which the inhibition in the experiment filed under Rattus norvegicus [1] stood at 57.2%; in [2], 55%; in the experiment filed under Rattus norvegicus [3], 33.1%; in the experiment listed under Rattus norvegicus [5], 0%; in the experiment listed under Rattus norvegicus [7] it was 40%. The molecule further registered an IC50 in the experiment listed under Rattus norvegicus [4] of 68.6 µM. The Inhibition in the experiment filed under Homo sapiens [6] came out at 87.6%; in the experiment listed under Homo sapiens [8], 77.2%.

In the case of `COc1ccc(-c2cc(=O)c3ccc(C)c(C)c3o2)cc1OC`, the inhibition in experiment [2] was 25.7%; in the experiment listed under Rattus norvegicus [9], 89.6%; in the experiment filed under Rattus norvegicus [5], 0%; in the experiment filed under Rattus norvegicus [11] it was 26.2%; in the experiment filed under Rattus norvegicus [7], 37.4%. The same molecule registered an IC50 in the experiment listed under Rattus norvegicus [10] of 29.6 µM. The Inhibition in the experiment listed under Homo sapiens [6] is on record as 9.6%; in the experiment filed under Homo sapiens [8], 37.4%.

On to `COc1ccc2c(c1)c(CC(=O)O)c(C)n2C(=O)c1ccc(Cl)cc1` [INDOMETHACIN], for which the figures for the Inhibition in the experiment listed under Homo sapiens [6] and in the experiment filed under Homo sapiens [8] were 31.9% and 100%, respectively.

As to `CCN(CC)CCCC(C)Nc1c2ccc(Cl)cc2nc2ccc(OC)cc12` (centres undefined), in experiment [12], the inhibition is 48.9%.

In the case of `COc1ccc(-c2cc(=O)c3ccc(OC)c(OC)c3o2)cc1OC`, the inhibition came out at 46.2% in experiment [2]; 93.2% in the experiment listed under Rattus norvegicus [9]; 58.2% in the experiment filed under Rattus norvegicus [14]; 0% in the experiment filed under Rattus norvegicus [5]; 30% in the experiment listed under Rattus norvegicus [16]. Also, the figures for the concentration for half-maximal inhibition (IC50) in the experiment listed under Rattus norvegicus [13] and in the experiment listed under Rattus norvegicus [15] were 56.6 µM and 62.6 µM, respectively. The Inhibition is on record as 41.7% in the experiment filed under Homo sapiens [6] and 38.6% in the experiment filed under Homo sapiens [8].

`CCCOC(=O)c1cc(O)c(O)c(O)c1` [PROPYL GALLATE]: the inhibition in the experiment listed under Rattus norvegicus [17], in the experiment filed under Rattus norvegicus [19], in the experiment listed under Rattus norvegicus [20] and in the experiment listed under Rattus norvegicus [7] was 100% throughout. Further, the IC50 in the experiment listed under Rattus norvegicus [18] is 4.9 µM; in the experiment listed under Rattus norvegicus [21] it was 33.9 µM; in the experiment listed under Rattus norvegicus [22] it was 4.5 µM; in the experiment filed under Rattus norvegicus [23], 8 µM.

In the case of `COc1ccc(/C=C/C(=O)c2ccc(C)c(C)c2O)cc1OC`, the inhibition in experiment [2] was determined as 27.5%; in the experiment filed under Rattus norvegicus [24] it was 55.3%; in the experiment listed under Rattus norvegicus [9], 51%; in the experiment listed under Rattus norvegicus [25], 28.8%; in the experiment listed under Rattus norvegicus [5], 8.2%. The molecule also came in with an IC50 in the experiment listed under Rattus norvegicus [26] of 95 µM. The Inhibition in the experiment filed under Homo sapiens [6] amounted to 39.6%; in the experiment filed under Homo sapiens [8], 28.1%.

The values are drawn from ChEMBL document CHEMBL1128476, “Synthesis and pharmacological evaluation of 2'-hydroxychalcones and flavones as inhibitors of inflammatory mediators generation” (J Med Chem, 1995).
